From US8933230B2, “Phosphorus-containing group-substituted quinoline, its preparation process, medical composition containing the compounds and application” (priority 2011, dated 2015) come the findings set out here.

The subject of series [1] is GTL-16 human gastric cancer cells. The experiment in a line: Anti-tumor experiment, GTL-16 xenograft in nude mice. The class given is in vivo, BALB/c-nu/nu mice. The note with it: after 14 days, 50 mg/kg qd p.o. The text has this:
Anti-tumor experiments: in this example, N1-[4-[[7-[3-(diethoxyphosphorylmethylamino)propoxyl]-6-methoxyl-4-quinolyl]oxyl]-3-fluorophenyl]-N1′-(4-fluorophenyl)cyclopropane-1,1-dicarboxamide obtained from Example 3 is used in the anti-tumor experiments in nude mice animal model of xenograft GTL-16 human gastric cancer cells, the methods and results are as follows:
7-8 weeks old SPF level female BALB/c-nu/nu mice with 16-20 g of body weights are purchased from Experimental Animal Center of Guangdong Province, inspection certificate number: NO:0072659. GTL-16 gastric cancer cells are purchased from the Cell Source Center of Shanghai Institutes for Biological Sciences. RPM 1-1640 cell culture medium, fetal calf serum (FBS) and digestive juice of trypsin are from Gibco Corporation. All the antibiotics are purchased from Sigma Company.
(§1) Firstly culturing the GTL-16 gastric cancer cells: GTL-16 cell line is inoculated in RPM 1-1640 culture solution containing 10% FBS, 100 U/ml penicillin, 100 U/ml streptomycin, and cultured at 37° C., 5% CO2, 100% humidity in a carbon dioxide cell incubator, the cells enter into logarithmic growth phase after 24 hours, after 48 hours of inoculation, the cells grow to cover the bottom of the culture bottle. […]

Series [2] can be described thus: Body weight of GTL-16 tumor-bearing nude mice under treatment. The note with it: after treating for 14 days, 50 mg/kg qd p.o. The class given is in vivo, BALB/c-nu/nu mice. How it is done: as §1, with “bottle. Then the GTL-16 cells covering 80% bottom of the culture bottle are digested, 5 minutes after centrifuging at 1000 r/min, the cells are diluted to 2×10^7/ml and implanted subcutaneously in the right anterior axillary fossa with 0.1 ml per mouse.” for “bottle.”

SMILES strings stand for the structures. Bounds are passed on as bounds.

On to `CCOP(=O)(CNCCCOc1cc2nccc(Oc3ccc(NC(=O)C4(C(=O)Nc5ccc(F)cc5)CC4)cc3F)c2cc1OC)OCC` [Example 3, N1-[4-[[7-[3-(diethoxyphosphorylmethylamino)propoxyl]-6-methoxyl-4-quinolyl]oxyl]-3-fluorophenyl]-N1′-(4-fluorophenyl)cyclopropane-1,1-dicarboxamide], for which the “Tumor Growth Inhibition (TGI)” value in series [1] stood at 85%. The compound also came in with an average tumor volume in series [1] (mean±SD, n=8) of 57.1±61.2 mm^3. In series [2], the body weight change is under 5%.
